Results on one compound are retold here after patent US20260130881A1, “SUSTAINED RELEASE DEVICE CONTENTS FOR TREATMENT OF PARKINSON'S DISEASE AND OTHER DISORDERS” (priority 2024, published 2026).

For the data set the following is noted: human, in vivo.

`N[C@@H](Cc1ccc(O)c(O)c1)C(=O)O` [levodopa]: the AUC_0-6 h is 1423.0 ± 919.5 ng·h/mL.
